Data taken from patent publication US11124519B2, “Cocrystal forms of ((1S,2S,4R)-4-{4-[(1S)-2,3-dihydro-1H-inden-1-ylamino]-7H-pyrrolo [2,3-d]pyrimidin-7-yl}-2-hydroxycyclopentyl) methyl sulfamate, formulations and uses thereof” (Millennium Pharmaceuticals, Inc., priority 2017, dated 2021).
“Also recorded” adds a separate entry of the source. Counter-ions that a name gives are not always drawn. Like-named read-outs stand apart in the source and are kept apart here. Marks after values point to notes of the source that are not given here. One block for each compound: values may come before it.

Assays:
[1] = Physical stability on exposure to elevated relative humidity (deliquescence); assay type: physicochemical; settings: RT
From the text: Each cocrystal was also exposed to elevated relative humidity (first ˜75% RH, then ˜97% RH) for specified time periods (Table 20).

physchem = settings: water, thermodynamic from solid
[2] = Aqueous solubility estimate in water by solvent addition method; settings: for Solubility Estimate: solvent addition method, visual assessment, rounded to nearest whole number
[3] = Chemical stability under temperature/humidity stress, HPLC purity at t=0 and t=14 days; settings: for Purity after 60° C./75% RH, 2 weeks / Purity after 60° C./ambient RH, 2 weeks: HPLC; for Chemical stability under the stressed conditions (in words): 60° C./ambient RH and 60° C./75% RH; for Purity after 60° C./75% RH, 2 weeks / Chemical stability under the stressed conditions (in words) / Purity after 60° C./ambient RH, 2 weeks: 2 weeks; for Purity T = 0: unstressed, t=0, HPLC
Protocol: (§1) High Performance Liquid Chromatography (HPLC): HPLC analyses were performed using an Agilent 1100 series liquid chromatograph equipped with a variable wavelength detector and binary pump for sequence file 552094, and a diode array detector and quaternary pump for the remaining sequences. […] Degasser and an autosampler (set to ˜5° C.) were equipped for all sequences. The chromatographic column was a 150×4.6 mm Aquasil C18 column with 3 μm packing (Thermo Scientific). The column temperature was set to 40° C., and the detector wavelength was 280 nm with a bandwidth of 8 nm. The injection volume was 15 μL. Mobile phase A was 0.1% TFA in Water, and mobile phase B was 0.1% TFA in Acetonitrile. The flow rate used was 0.5 L/minute. Mobile phases were filtered and degassed through a 0.45 μm nylon filter under vacuum prior to use, except for Mobile phase A used in sequence file 554410 due to time constraints.
(§2) The physical and chemical stability of the glycolic acid, hippuric acid, malonic acid, and saccharin cocrystals were evaluated at two stress conditions (60° C./ambient relative humidity and 60° C./75% relative humidity) and compared to MLN4924 HCl salt.
(§3) Chemical stability was assessed via HPLC analysis of samples at t=0 and t=14 days.

[4] = 2 weeks
Protocol: as §1, §2, §3

[5] = cited from earlier work
[6] = Physical stability under temperature/humidity stress, XRPD comparison of unstressed and stressed samples; assay type: physicochemical; settings: 60° C./75% RH, 2 weeks; listed as MLN4924-HCl
Protocol: Physical stability was assessed by comparison of XRPD patterns of the unstressed and stressed samples.

[7] = listed as Glycolic acid (Form A)
[8] = listed as Hippuric acid (Form B)
[9] = listed as Malonic acid (Form M)

Compound: NS(=O)(=O)OC[C@@H]1C[C@@H](n2ccc3c(N[C@H]4CCc5ccccc54)ncnc32)C[C@@H]1O [Form H, ((1S,2S,4R)-4-{4-[(1S)-2,3-dihydro-1H-inden-1-ylamino]-7H-pyrrolo[2,3-d]pyrimidin-7-yl}-2-hydroxycyclopentyl)methyl sulfamate]
Observations After Stress ([1]; ~75% RH stress, ~3 days): Free flowing solids | Observations After Stress ([1]; ~97% RH stress, ~2 days): Free flowing solids | solubility (physchem): < 1000 µg/mL

Compound: NS(=O)(=O)OC[C@@H]1C[C@@H](n2ccc3c(N[C@H]4CCc5ccccc54)ncnc32)C[C@@H]1O [Form A, ((1S,2S,4R)-4-{4-[(1S)-2,3-dihydro-1H-inden-1-ylamino]-7H-pyrrolo[2,3-d]pyrimidin-7-yl}-2-hydroxycyclopentyl)methyl sulfamate]
Observations After Stress ([1]; ~75% RH stress, ~3 days): Free flowing solids | Observations After Stress ([1]; ~97% RH stress, ~2 days): Free flowing solids | Solubility Estimate [2]: <1^c mg/mL | Purity after 60° C./75% RH, 2 weeks [3, 7]: 93.0% | Chemical stability under the stressed conditions (in words) ([3]; listed as glycolic acid cocrystal): limited stability | Purity after 60° C./ambient RH, 2 weeks [3, 7]: 95.9% | Purity T = 0 [3, 7]: 96.9%

Compound: NS(=O)(=O)OC[C@@H]1C[C@@H](n2ccc3c(N[C@H]4CCc5ccccc54)ncnc32)C[C@@H]1O [Form F, ((1S,2S,4R)-4-{4-[(1S)-2,3-dihydro-1H-inden-1-ylamino]-7H-pyrrolo[2,3-d]pyrimidin-7-yl}-2-hydroxycyclopentyl)methyl sulfamate]
Chemical stability under the stressed conditions (in words) [4]: improvement in stability over the current MLN4924 HCl form | Observations After Stress ([1]; ~75% RH stress, ~3 days): Free flowing solids | Observations After Stress ([1]; ~97% RH stress, ~2 days): Free flowing solids | Purity after 60° C./75% RH, 2 weeks ([3]; listed as Saccharin (Form F)): 91.0% | Purity after 60° C./ambient RH, 2 weeks ([3]; listed as Saccharin (Form F)): 91.2% | Purity T = 0 ([3]; listed as Saccharin (Form F)): 91.2% | Purity T = 0 ([3]; listed as saccharin cocrystal): about 91%

Compound: NS(=O)(=O)OC[C@@H]1C[C@@H](n2ccc3c(N[C@H]4CCc5ccccc54)ncnc32)C[C@@H]1O [Form B, ((1S,2S,4R)-4-{4-[(1S)-2,3-dihydro-1H-inden-1-ylamino]-7H-pyrrolo[2,3-d]pyrimidin-7-yl}-2-hydroxycyclopentyl)methyl sulfamate]
Observations After Stress ([1]; ~75% RH stress, ~3 days): Free flowing solids | Observations After Stress ([1]; ~97% RH stress, ~2 days): Free flowing solids | Solubility Estimate [2]: <1 mg/mL | Purity after 60° C./75% RH, 2 weeks [3, 8]: 93.9% | Chemical stability under the stressed conditions (in words) ([3]; listed as hippuric acid cocrystal): little decomposition; also recorded: improvement in stability over the current MLN4924 HCl form | Purity after 60° C./ambient RH, 2 weeks [3, 8]: 94.1% | Purity T = 0 [3, 8]: 94.4%

Compound: NS(=O)(=O)OC[C@@H]1C[C@@H](n2ccc3c(N[C@H]4CCc5ccccc54)ncnc32)C[C@@H]1O [Form J, ((1S,2S,4R)-4-{4-[(1S)-2,3-dihydro-1H-inden-1-ylamino]-7H-pyrrolo[2,3-d]pyrimidin-7-yl}-2-hydroxycyclopentyl)methyl sulfamate]
Observations After Stress ([1]; ~75% RH stress, ~3 days): Free flowing solids | Observations After Stress ([1]; ~97% RH stress, ~2 days): Free flowing solids

Compound: NS(=O)(=O)OC[C@@H]1C[C@@H](n2ccc3c(N[C@H]4CCc5ccccc54)ncnc32)C[C@@H]1O [Form G, ((1S,2S,4R)-4-{4-[(1S)-2,3-dihydro-1H-inden-1-ylamino]-7H-pyrrolo[2,3-d]pyrimidin-7-yl}-2-hydroxycyclopentyl)methyl sulfamate]
Observations After Stress ([1]; ~75% RH stress, ~3 days): Free flowing solids | Observations After Stress ([1]; ~97% RH stress, ~2 days): Slightly tacky solids | Observations After Stress ([1]; ~97% RH stress, ~2 days, listed as solvated piperazine cocrystal): slightly tacky

More lines, main results first:

Purity after 60° C./75% RH, 2 weeks [3]: 96.6% | Chemical stability under the stressed conditions (in words) ([3]; listed as MLN4924-HCl): limited stability | Purity after 60° C./ambient RH, 2 weeks [3]: 94.6% | Purity T = 0 [3]: 98.2% | Form change (XRPD) [6]: new unique crystalline XRPD pattern
Compound: NS(=O)(=O)OC[C@@H]1C[C@@H](n2ccc3c(N[C@H]4CCc5ccccc54)ncnc32)C[C@@H]1O [HCl, ((1S,2S,4R)-4-{4-[(1S)-2,3-dihydro-1H-inden-1-ylamino]-7H-pyrrolo[2,3-d]pyrimidin-7-yl}-2-hydroxycyclopentyl)methyl sulfamate, reference compound]
Chemical stability during accelerated stress condition [5]: limited chemical stability

Observations After Stress ([1]; ~75% RH stress, ~4 days): Free flowing solids | Observations After Stress ([1]; ~97% RH stress, ~1 day): Free flowing solids | solubility ([2]; thermodynamic from solid): < 1000 µg/mL | Purity after 60° C./75% RH, 2 weeks [3, 9]: 99.0% | Chemical stability under the stressed conditions (in words) ([3]; listed as malonic acid): highest final purity | Purity after 60° C./ambient RH, 2 weeks [3, 9]: 99.1% | Purity T = 0 [3, 9]: 99.0% | Purity T = 0 ([3]; listed as malonic acid): highest initial purity
Compound: NS(=O)(=O)OC[C@@H]1C[C@@H](n2ccc3c(N[C@H]4CCc5ccccc54)ncnc32)C[C@@H]1O [Form M, ((1S,2S,4R)-4-{4-[(1S)-2,3-dihydro-1H-inden-1-ylamino]-7H-pyrrolo[2,3-d]pyrimidin-7-yl}-2-hydroxycyclopentyl)methyl sulfamate]
Chemical stability under the stressed conditions (in words) ([3]; listed as malonic acid cocrystal): little decomposition; also recorded: improvement in stability over the current MLN4924 HCl form

Observations After Stress ([1]; ~75% RH stress, ~4 days): Free flowing solids | Observations After Stress ([1]; ~97% RH stress, ~1 day): Free flowing solids
Compound: NS(=O)(=O)OC[C@@H]1C[C@@H](n2ccc3c(N[C@H]4CCc5ccccc54)ncnc32)C[C@@H]1O [Form L, ((1S,2S,4R)-4-{4-[(1S)-2,3-dihydro-1H-inden-1-ylamino]-7H-pyrrolo[2,3-d]pyrimidin-7-yl}-2-hydroxycyclopentyl)methyl sulfamate]

Observations After Stress ([1]; ~75% RH stress, ~4 days): Free flowing solids | Observations After Stress ([1]; ~97% RH stress, ~1 day): Free flowing solids | Solubility Estimate [2]: <1^c mg/mL
Compound: NS(=O)(=O)OC[C@@H]1C[C@@H](n2ccc3c(N[C@H]4CCc5ccccc54)ncnc32)C[C@@H]1O [Form N, ((1S,2S,4R)-4-{4-[(1S)-2,3-dihydro-1H-inden-1-ylamino]-7H-pyrrolo[2,3-d]pyrimidin-7-yl}-2-hydroxycyclopentyl)methyl sulfamate]
